# From article PMC6201879, “N-substituted phenylbenzamides of the niclosamide chemotype attenuate obesity related changes in high fat diet fed mice” (PLoS ONE, 2018)
# Read-outs that look alike come from different tables or passages of the source.
# Assays:
# [1] = tested on: Salmonella typhimurium (TA98, TA100, TA1535 and TA1537) and Escherichia coli (WP2 uvrA (pKM101)); assay: Ames assay, overall outcome and cytotoxicity across strains
# [2] = Body weight changes in HFD-fed mice; assay type: in vivo, mouse; conditions: 10mg/kg I.P daily for 12 days
# Method: We next measured body weight changes in HFD-fed animals prior to treatment with niclosamide or phenylbenzamide derivatives and after 12 days, prior to sacrifice. During this time, all animals (including sham) lost some weight.
# 20-week old animals were treated IP with 500199 at 10 or 25mg/kg by IP over a time-course of 9 days. At day 0, 3, 6 and 9 animals were weighed and tissue samples were collected for standard histological scoring of hepatic steatosis and automated quantitative histomorphometric scoring.
# [3] = tested on: carbonic anhydrase-III (CAIII); assay: Western blot of carbonic anhydrase III in liver of HFD-fed mice; conditions: HFD fed-DIO mice; 10mg/kg for 12 days; vs sham
# [4] = tested on: Salmonella typhimurium TA1535; conditions: for Mean Revertant Colony Counts TA-1535 SP9+: with S9; for Mean Revertant Colony Counts TA-1535 S9-: without S9
# [5] = tested on: Escherichia coli WP2 uvrA (pKM101); assay: Ames assay, strain WP2 uvrA (pKM101); conditions: for Mean Revertant Colony Counts WP2 uvrA (pKM101) SP9+: with S9; for Mean Revertant Colony Counts WP2 uvrA (pKM101) S9-: without S9
# [6] = Metabolic stability in mouse liver microsomes; assay type: in vitro ADME
# Method: Three experiments were performed with 1) 0.5mg/ml microsomes and 1mM NADPH, 2) 0.5mg/ml microsomes without NADPH and 3) 0.5mg/ml heat inactivated microsomes without NADPH in 100mM phosphate buffer, containing 5mM magnesium chloride. […] At the indicated time points, 50μl samples were removed and stopped by addition of 4 volumes of cold acetonitrile with internal standards, 100nM alprazolam, 200nM labetalol and 2μM ketoprofen. The samples were centrifuged at 3,220 g for 40 minutes and aliquots of 100μl were subsequently diluted with 100μl of ultra-pure water and analyzed by LC/MS/MS using a (Shimadzu corporation) LC system coupled to a Shimadzu Triple Quad 5500 mass spectrometer with an ESI interface. The LC system used a Waters XSelect HSS T3 C18, 2.5μm, 2.1 x 50 mm column eluted with one of two methods using mobile phases A (water, 0.1% formic acid) and B (acetonitrile, 0.1% formic acid). […] The Shimadzu Triple Quad 5500 MS was operated with the following parameters: Ion source: Turbo spray; Ionization mode: ESI; Scan type: MRM; Collision gas: 10 L/min; Curtain gas: 30 L/min; Nebulize gas: 50 L/min; Auxiliary gas: 50 L/min; Temperature: 500°C; Ionspray voltage: +5500 V (positive MRM). All experiments were performed in duplicate. Data were analyzed using Microsoft excel, and peak areas were determined from extracted ion chromatograms.
# [7] = tested on: Salmonella typhimurium TA98; assay: Ames assay, strain TA98; conditions: for Mean Revertant Colony Counts TA98 SP9+: with S9; for Mean Revertant Colony Counts TA98 S9-: without S9
# [8] = tested on: p-AMPK Thr-172; assay: Western blot of p-AMPK Thr-172 in liver of HFD-fed mice; conditions: HFD fed-DIO mice; 10mg/kg for 12 days; vs sham
# [9] = tested on: Salmonella typhimurium TA1537; conditions: for Mean Revertant Colony Counts TA-1537 SP9+: with S9; for Mean Revertant Colony Counts TA-1537 S9-: without S9
# [10] = tested on: fatty acid synthase (FAS); assay: Western blot of fatty acid synthase in liver of HFD-fed mice; conditions: HFD fed-DIO mice; 10mg/kg for 12 days; vs sham
# [11] = any concentration tested, vs negative control
compound,measurement,setting,value
"CC(C)(C)c1cc(C(=O)Nc2ccc(C(=O)O)cc2Cl)c(O)c(C(C)(C)C)c1 [Compound 600453, 3-Chloro-4-[(3,5-di-tert-butyl-2-hydroxybenzene)amido]benzoic acid]",Ames assay outcome (mutagenicity),[1],negative
same,cytotoxicity in the Ames assay,"[1]; relative to the negative control, presence and absence of S9 mix",no cytotoxicity was exhibited at any concentration
same,body weight change vs sham,[2],lost significantly more weight
same,CAIII protein levels in liver,[3],reduced
same,Mean Revertant Colony Counts TA-1535 SP9+,[4]; 1.5 ug/Well,2.7
same,Mean Revertant Colony Counts TA-1535 S9-,[4]; 1.5 ug/Well,4.0
same,Mean Revertant Colony Counts TA-1535 SP9+,[4]; 4 ug/Well,3.7
same,Mean Revertant Colony Counts TA-1535 S9-,[4]; 4 ug/Well,3.7
same,Mean Revertant Colony Counts TA-1535 SP9+,[4]; 10 ug/Well,2.7
same,Mean Revertant Colony Counts TA-1535 S9-,[4]; 10 ug/Well,1.7
same,Mean Revertant Colony Counts TA-1535 SP9+,[4]; 25 ug/Well,2.3
same,Mean Revertant Colony Counts TA-1535 S9-,[4]; 25 ug/Well,2.7
same,Mean Revertant Colony Counts TA-1535 SP9+,[4]; 64 ug/Well,3.0
same,Mean Revertant Colony Counts TA-1535 S9-,[4]; 64 ug/Well,1.7
same,Mean Revertant Colony Counts TA-1535 SP9+,[4]; 160 ug/Well,3.3
same,Mean Revertant Colony Counts TA-1535 S9-,[4]; 160 ug/Well,4.0
same,Mean Revertant Colony Counts TA-1535 SP9+,[4]; 400 ug/Well,2.0
same,Mean Revertant Colony Counts TA-1535 S9-,[4]; 400 ug/Well,2.7
same,Mean Revertant Colony Counts TA-1535 SP9+,[4]; 1000 ug/Well,2.0
same,Mean Revertant Colony Counts TA-1535 S9-,[4]; 1000 ug/Well,2.7
same,"fold increase in the mean number of revertant colonies, TA1535",[4]; [11],< 3 fold
same,Mean Revertant Colony Counts WP2 uvrA (pKM101) SP9+,[5]; 1.5 ug/Well,36.0
same,Mean Revertant Colony Counts WP2 uvrA (pKM101) S9-,[5]; 1.5 ug/Well,31.7
same,Mean Revertant Colony Counts WP2 uvrA (pKM101) SP9+,[5]; 4 ug/Well,35.0
same,Mean Revertant Colony Counts WP2 uvrA (pKM101) S9-,[5]; 4 ug/Well,20.7
same,Mean Revertant Colony Counts WP2 uvrA (pKM101) SP9+,[5]; 10 ug/Well,31.7
same,Mean Revertant Colony Counts WP2 uvrA (pKM101) S9-,[5]; 10 ug/Well,29.3
same,Mean Revertant Colony Counts WP2 uvrA (pKM101) SP9+,[5]; 25 ug/Well,33.3
same,Mean Revertant Colony Counts WP2 uvrA (pKM101) S9-,[5]; 25 ug/Well,15.7
same,Mean Revertant Colony Counts WP2 uvrA (pKM101) SP9+,[5]; 64 ug/Well,28.0
same,Mean Revertant Colony Counts WP2 uvrA (pKM101) S9-,[5]; 64 ug/Well,23.0
same,Mean Revertant Colony Counts WP2 uvrA (pKM101) SP9+,[5]; 160 ug/Well,23.0
same,Mean Revertant Colony Counts WP2 uvrA (pKM101) S9-,[5]; 160 ug/Well,20.0
same,Mean Revertant Colony Counts WP2 uvrA (pKM101) SP9+,[5]; 400 ug/Well,15.3
same,Mean Revertant Colony Counts WP2 uvrA (pKM101) S9-,[5]; 400 ug/Well,9.0
same,Mean Revertant Colony Counts WP2 uvrA (pKM101) SP9+,[5]; 1000 ug/Well,9.0
same,Mean Revertant Colony Counts WP2 uvrA (pKM101) S9-,[5]; 1000 ug/Well,3.7
same,"fold increase in the mean number of revertant colonies, WP2 uvrA (pKM101)",[5]; [11],< 2 fold
same,"Remaining Percentage of 60 min (%), Mouse, Tested Sample","[6]; 0.5mg/ml microsomes and 1mM NADPH, 60 min",88.1%
same,"Remaining Percentage of 60 min (%), Mouse, Negative Control","[6]; 0.5mg/ml microsomes without NADPH, 60 min",109.7%
same,stability in MLM,[6]; 60 minutes,stable
same,"Remaining Percentage of 60 min (%), Mouse, Heat-inactivated Control","[6]; heat inactivated microsomes without NADPH, 60 min",91.4%
same,Mean Revertant Colony Counts TA98 SP9+,[7]; 1.5 ug/Well,5.0
same,Mean Revertant Colony Counts TA98 S9-,[7]; 1.5 ug/Well,4.3
same,Mean Revertant Colony Counts TA98 SP9+,[7]; 4 ug/Well,8.3
same,Mean Revertant Colony Counts TA98 S9-,[7]; 4 ug/Well,3.7
same,Mean Revertant Colony Counts TA98 SP9+,[7]; 10 ug/Well,7.7
same,Mean Revertant Colony Counts TA98 S9-,[7]; 10 ug/Well,3.3
same,Mean Revertant Colony Counts TA98 SP9+,[7]; 25 ug/Well,6.3
same,Mean Revertant Colony Counts TA98 S9-,[7]; 25 ug/Well,3.0
same,Mean Revertant Colony Counts TA98 SP9+,[7]; 64 ug/Well,8.7
same,Mean Revertant Colony Counts TA98 S9-,[7]; 64 ug/Well,6.0
same,Mean Revertant Colony Counts TA98 SP9+,[7]; 160 ug/Well,6.3
same,Mean Revertant Colony Counts TA98 S9-,[7]; 160 ug/Well,3.7
same,Mean Revertant Colony Counts TA98 SP9+,[7]; 400 ug/Well,7.3
same,Mean Revertant Colony Counts TA98 S9-,[7]; 400 ug/Well,2.0
same,Mean Revertant Colony Counts TA98 SP9+,[7]; 1000 ug/Well,4.0
same,Mean Revertant Colony Counts TA98 S9-,[7]; 1000 ug/Well,3.7
same,"fold increase in the mean number of revertant colonies, TA98",[7]; [11],< 2 fold
same,phosphorylation of AMPK at Thr-172 in liver,[8],stimulated phosphorylation of AMPK at Thr-172
same,Mean Revertant Colony Counts TA-1537 SP9+,[9]; 1.5 ug/Well,2.3
same,Mean Revertant Colony Counts TA-1537 S9-,[9]; 1.5 ug/Well,0.7
same,Mean Revertant Colony Counts TA-1537 SP9+,[9]; 4 ug/Well,3.3
same,Mean Revertant Colony Counts TA-1537 S9-,[9]; 4 ug/Well,1.3
same,Mean Revertant Colony Counts TA-1537 SP9+,[9]; 10 ug/Well,1.7
same,Mean Revertant Colony Counts TA-1537 S9-,[9]; 10 ug/Well,2.3
same,Mean Revertant Colony Counts TA-1537 SP9+,[9]; 25 ug/Well,1.7
same,Mean Revertant Colony Counts TA-1537 S9-,[9]; 25 ug/Well,1.3
same,Mean Revertant Colony Counts TA-1537 SP9+,[9]; 64 ug/Well,1.0
same,Mean Revertant Colony Counts TA-1537 S9-,[9]; 64 ug/Well,0.3
same,Mean Revertant Colony Counts TA-1537 SP9+,[9]; 160 ug/Well,3.3
same,Mean Revertant Colony Counts TA-1537 S9-,[9]; 160 ug/Well,0.0
same,Mean Revertant Colony Counts TA-1537 SP9+,[9]; 400 ug/Well,0.7
same,Mean Revertant Colony Counts TA-1537 S9-,[9]; 400 ug/Well,1.0
same,Mean Revertant Colony Counts TA-1537 SP9+,[9]; 1000 ug/Well,3.7
same,Mean Revertant Colony Counts TA-1537 S9-,[9]; 1000 ug/Well,0.3
same,"fold increase in the mean number of revertant colonies, TA1537",[9]; [11],< 3 fold
same,FAS protein levels in liver,[10],reduced
